Paper PMC12314110, “Evaluation of Potential Effects of CYP3A Inhibition and CYP3A Induction on the Pharmacokinetics of Fruquintinib in Healthy Subjects” (Clinical Pharmacology in Drug Development, 2025)

Tests used:
[1] = Part A: PK of single-dose fruquintinib alone and with itraconazole (CYP3A inhibition); type: in vivo, human; details: for MPR AUC0‐inf (metabolite‐to‐parent ratio) / MPR AUC0‐t (metabolite‐to‐parent ratio) / MPR Cmax (metabolite‐to‐parent ratio): M11 to fruquintinib; for MPR AUC0‐inf (metabolite‐to‐parent ratio) / MPR AUC0‐t (metabolite‐to‐parent ratio) / MPR Cmax (metabolite‐to‐parent ratio) / Cmax / Tmax / half-life / AUC: Part A; for MPR AUC0‐inf (metabolite‐to‐parent ratio) / MPR AUC0‐t (metabolite‐to‐parent ratio) / MPR Cmax (metabolite‐to‐parent ratio) / Cmax / half-life / AUC: arithmetic mean (SD); for Cmax / Tmax / half-life / AUC: both sexes, human, oral, metabolite M11 in plasma; for Cmax: read-out: Cmax; for Tmax: median (minimum‐maximum); for half-life / AUC: plasma
Source text: (§1) This was a single‐center, open‐label, 2‐part (Part A and Part B), 2‐period, fixed‐sequence study conducted in healthy male and female subjects. Parts A and B evaluated the effect of the CYP3A inhibitor itraconazole and the CYP3A inducer rifampin on the PK profile of fruquintinib, respectively. Each part consisted of a screening phase, a treatment phase (Period 1 and Period 2), and an end‐of‐study (EOS) phase. Screening occurred within 21 days before the first study drug administration. There was at least a 14‐day washout of fruquintinib between treatment periods. PK samples were collected before dosing and over 168 hours following the fruquintinib dose in Part A (with itraconazole) and Part B (with rifampin). Part A and Part B were enrolled independently.
In Part A, subjects were administered fruquintinib alone in Treatment Period 1 and in combination with itraconazole in Treatment Period 2. Study Day 1 was considered the start of Treatment Period 1, and Study Day 15 was considered the start of Treatment Period 2. On Study Day 1, subjects received a single dose of fruquintinib 5 mg by mouth under fasted conditions (subjects fasted for at least 10 hours before fruquintinib dosing and 4 hours after), and on Study Day 19 subjects received a second single dose of fruquintinib 5 mg by mouth under fasted conditions, alongside itraconazole. On Study Day 15, subjects began a regimen of itraconazole 200 mg by mouth twice a day, followed by once daily dosing on Study Days 16‐25. A dose of 200 mg was selected, with a loading dose as part of a 5‐day lead‐in (twice daily for 1 day, once daily for 4 days) to achieve appropriate inhibition of CYP3A before dosing with fruquintinib.[10] Once‐daily dosing of itraconazole for an additional 5 days throughout the fruquintinib PK sampling period was continued to maintain CYP3A inhibition.[11]
As itraconazole oral bioavailability is maximal when the capsules are taken immediately after a full meal,[12] it was administered under fed conditions except when coadministered with fruquintinib on Study Day 19. Itraconazole doses were administered 30 minutes after the start of breakfast on Study Days 15‐18 and Study Days 20‐25. On Study Day 19, subjects received both treatments under fasted conditions, and itraconazole was administered 1 hour before administration of a single dose of fruquintinib 5 mg by mouth. Subjects were discharged after completion of EOS procedures on Study Day 26 or at early withdrawal.
(§2) Blood samples for determination of fruquintinib and metabolite M11 plasma concentrations were collected before dosing and at 0.5, 1, 1.5, 2, 3, 4, 6, 8, 12, 24, 36, 48, 72, 96, 120, 144, and 168 hours after fruquintinib dosing. Plasma samples were analyzed by LabCorp Bioanalytical (Indianapolis, IN) using a validated liquid chromatography with tandem mass spectrometry assay method with an analytical range of 1.00 ng/mL (lower limit of quantitation) to 750 ng/mL (upper limit of quantitation) for both fruquintinib and M11.[6] Interrun variability was 6.3% or less and 13.8% or less for fruquintinib and M11, respectively. Quality control samples at 4 concentrations (3, 30, 300, and 600 ng/mL) were assayed along with study samples, and the bias quality control sample concentrations deviated by ±2.0% and ±2.7% from the nominal concentrations for fruquintinib and M11, respectively.
PK parameters were determined by noncompartmental analysis and included maximum plasma concentration (Cmax); time to reach Cmax (tmax); area under the plasma concentration‐time curve (AUC) from time 0 to the time of the last measurable concentration (AUC0‐t); AUC from time 0 to infinity (AUC0‐inf); half‐life (t1/2); and the metabolite‐to‐parent ratios for Cmax, AUC0‐t, and AUC0‐inf. Apparent oral clearance and volume of distribution were also estimated for fruquintinib. […]

[2] = Part B: PK of single-dose fruquintinib alone and with rifampin (CYP3A induction); type: in vivo, human; details: for MPR AUC0‐inf (metabolite‐to‐parent ratio) / MPR AUC0‐t (metabolite‐to‐parent ratio) / MPR Cmax (metabolite‐to‐parent ratio): M11 to fruquintinib; for MPR AUC0‐inf (metabolite‐to‐parent ratio) / MPR AUC0‐t (metabolite‐to‐parent ratio) / MPR Cmax (metabolite‐to‐parent ratio) / Cmax / half-life / AUC / Tmax: Part B; for MPR AUC0‐inf (metabolite‐to‐parent ratio) / MPR AUC0‐t (metabolite‐to‐parent ratio) / MPR Cmax (metabolite‐to‐parent ratio) / Cmax / half-life / AUC: arithmetic mean (SD); for Cmax / half-life / AUC / Tmax: metabolite M11 in plasma; for Cmax: read-out: Cmax; for Tmax: median (minimum‐maximum)
Source text: as §1
In Part B, subjects were administered fruquintinib alone in Treatment Period 1 and in combination with rifampin in Treatment Period 2. Study Day 1 was considered as the start of Treatment Period 1, and Study Day 8 was considered as the start of Treatment Period 2. On Study Day 1, a single dose of fruquintinib 5 mg by mouth was administered under fasted conditions, and on Study Day 15, a single dose of fruquintinib 5 mg was administered by mouth under fasted conditions alongside rifampin. Starting on Study Day 8, rifampin 600 mg was dosed by mouth once daily for 14 consecutive days, 7 days before fruquintinib dosing and 6 days after fruquintinib dosing, to ensure that induction was maintained throughout the PK sampling period. Subjects therefore received rifampin from Study Day 8 to Study Day 21. Absorption of rifampin is reduced by approximately 30% when the drug is ingested with food.[13] Therefore, rifampin was administered at least 1 hour before breakfast when given alone and under fasted conditions when administered with fruquintinib. Breakfast was given at least 1 hour after the rifampin doses on Study Days 8‐14 and Study Days 16‐21. On Study Day 15, subjects received both treatments under fasted conditions, and rifampin was administered 1hour before administration of a single dose of fruquintinib 5 mg by mouth. Subjects were discharged after completion of EOS procedures on Study Day 22 or at early withdrawal.
as §2
PK parameters were determined by noncompartmental analysis and included maximum plasma concentration (Cmax); time to reach Cmax (tmax); area under the plasma concentration‐time curve (AUC) from time 0 to the time of the last measurable concentration (AUC0‐t); AUC from time 0 to infinity (AUC0‐inf); half‐life (t1/2); and the metabolite‐to‐parent ratios for Cmax, AUC0‐t, and AUC0‐inf. Apparent oral clearance and volume of distribution were also estimated for fruquintinib.
For Part A, the effect of itraconazole based on the PK parameters of fruquintinib was evaluated using a linear mixed‐effect model with treatment (ie, fruquintinib with itraconazole [test] and fruquintinib alone [reference]) as fixed effects and subject as a random effect. A similar inferential analysis was performed for Part B, but fruquintinib with rifampin was the test group. […]

[3] = design: method as in PMID 28730290; details: mass balance study, major circulating metabolite; cited from earlier work
[4] = fruquintinib 5 mg + itraconazole 200 mg, n = 13
[5] = fruquintinib 5 mg + itraconazole 200 mg, n = 14
[6] = fruquintinib alone 5 mg, n = 14
[7] = coadministration of itraconazole
[8] = fruquintinib 5 mg + rifampin 600 mg, n = 13
[9] = fruquintinib alone 5 mg, n = 13

MPR AUC0‐inf (metabolite‐to‐parent ratio) [1, 4]: 0.177 (0.0371)
MPR AUC0‐t (metabolite‐to‐parent ratio) [1, 5]: 0.141 (0.0301)
MPR Cmax (metabolite‐to‐parent ratio) [1, 5]: 0.0579 (0.0155)
MPR AUC0‐inf (metabolite‐to‐parent ratio) ([1]; fruquintinib alone 5 mg, n = 12): 0.336 (0.0766)
MPR AUC0‐t (metabolite‐to‐parent ratio) [1, 6]: 0.291 (0.0745)
MPR Cmax (metabolite‐to‐parent ratio) [1, 6]: 0.121 (0.0358)
Cmax [1, 5]: 6.7 ng/mL
Tmax [1, 5]: 47.9 h
Cmax [1, 6]: 15.2 ng/mL
Tmax [1, 6]: 72 h
half-life ([1]; 5 mg, fruquintinib alone 5 mg, n = 12): 58.6 h
AUC ([1]; 5 mg, fruquintinib alone 5 mg, n = 12, read-out: AUC0‐inf): 2000 ng·h/mL
AUC ([1]; 5 mg, fruquintinib alone 5 mg, n = 14, read-out: AUC0‐t): 1580 ng·h/mL
half-life [1, 4]: 70.5 h
AUC ([1]; fruquintinib 5 mg + itraconazole 200 mg, n = 13, read-out: AUC0‐inf): 1100 ng·h/mL
AUC ([1]; fruquintinib 5 mg + itraconazole 200 mg, n = 14, read-out: AUC0‐t): 816 ng·h/mL
decrease of M11 AUC0‐inf [1, 7]: 44%
decrease of M11 AUC0‐t [1, 7]: 48%
decrease of M11 Cmax [1, 7]: 55%
MPR AUC0‐inf (metabolite‐to‐parent ratio) [2, 8]: 1.13 (0.269)
MPR AUC0‐t (metabolite‐to‐parent ratio) [2, 8]: 1.12 (0.266)
MPR Cmax (metabolite‐to‐parent ratio) [2, 8]: 0.312 (0.0975)
MPR AUC0‐inf (metabolite‐to‐parent ratio) [2, 9]: 0.379 (0.0944)
MPR AUC0‐t (metabolite‐to‐parent ratio) [2, 9]: 0.295 (0.0848)
MPR Cmax (metabolite‐to‐parent ratio) [2, 6]: 0.117 (0.0462)
Cmax ([2]; both sexes, human, oral, fruquintinib 5 mg + rifampin 600 mg, n = 13): 31.1 ng/mL
Cmax ([2]; both sexes, human, oral, fruquintinib alone 5 mg, n = 14): 13.7 ng/mL
half-life ([2]; both sexes, human, plasma, oral, 5 mg, fruquintinib alone 5 mg, n = 13): 71.8 h
AUC ([2]; both sexes, human, plasma, oral, 5 mg, fruquintinib alone 5 mg, n = 13, read-out: AUC0‐inf): 2160 ng·h/mL
AUC ([2]; both sexes, human, plasma, oral, 5 mg, fruquintinib alone 5 mg, n = 13, read-out: AUC0‐t): 1610 ng·h/mL
Tmax ([2]; both sexes, human, plasma, oral, 5 mg, fruquintinib alone 5 mg, n = 14, read-out: tmax): 48 h
half-life ([2]; both sexes, human, plasma, oral, fruquintinib 5 mg + rifampin 600 mg, n = 13): 25.1 h
AUC ([2]; both sexes, human, plasma, oral, fruquintinib 5 mg + rifampin 600 mg, n = 13, read-out: AUC0‐inf): 2200 ng·h/mL
AUC ([2]; both sexes, human, plasma, oral, fruquintinib 5 mg + rifampin 600 mg, n = 13, read-out: AUC0‐t): 2130 ng·h/mL
Tmax ([2]; both sexes, human, plasma, oral, fruquintinib 5 mg + rifampin 600 mg, n = 13, read-out: tmax): 23 h
increase of M11 Cmax ([2]; coadministration of fruquintinib with rifampin versus fruquintinib alone): 2.3 fold
Tmax [2, 8]: 22.9 (22.9–46.9) hour
SMILES: COc1cc2ncnc(Oc3ccc4c(C(N)=O)c(C)oc4c3)c2cc1OC [M11]
share of total radioactivity exposure in plasma [3]: approximately 17%
